From publication PMC10774165, “Correlating sugar transporter expression and activities to identify transporters for an orphan sugar substrate” (Applied Microbiology and Biotechnology, 2024) come the findings set out here.

Common to all, as to assay type: cell-based
Test [1] deals with T1, NCU08052 (Neurospora crassa, UniProt Q7SGN1).
T1 construct: native protein in N. crassa mycelium, wild type versus deletion mutant
The test can be described thus: glycerol uptake by N. crassa wild type versus deletion mutant. The following applies: after induction in arabinose, 20 min.

In test [2] the target is T2, NCU00809 (Neurospora crassa, UniProt Q7SEC5).
T2 construct: full-length cDNA in p426H7, expressed in S. cerevisiae EBY.VW4000 with K. lactis LAC4
T2 sequence (Q7SEC5 1-547): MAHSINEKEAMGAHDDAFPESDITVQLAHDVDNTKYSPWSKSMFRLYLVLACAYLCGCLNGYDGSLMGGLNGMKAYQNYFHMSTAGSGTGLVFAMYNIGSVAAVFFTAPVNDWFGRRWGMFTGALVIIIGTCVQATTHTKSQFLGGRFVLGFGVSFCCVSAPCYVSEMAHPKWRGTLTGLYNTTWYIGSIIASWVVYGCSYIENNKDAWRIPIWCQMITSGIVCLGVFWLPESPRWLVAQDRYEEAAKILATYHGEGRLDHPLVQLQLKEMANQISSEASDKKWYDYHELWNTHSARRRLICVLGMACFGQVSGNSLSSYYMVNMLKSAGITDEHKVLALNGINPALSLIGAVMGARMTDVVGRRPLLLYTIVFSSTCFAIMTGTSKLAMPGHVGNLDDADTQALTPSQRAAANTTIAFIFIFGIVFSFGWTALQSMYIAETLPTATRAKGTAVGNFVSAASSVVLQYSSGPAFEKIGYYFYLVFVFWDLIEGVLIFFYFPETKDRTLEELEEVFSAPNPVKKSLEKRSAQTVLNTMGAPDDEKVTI
The experiment in a line: growth of transporter-expressing yeast on the sugar. Particulars: S. cerevisiae EBY.VW4000.

Test [3] deals with T3, CDT-2 (Neurospora crassa, UniProt Q7SD12).
T3 construct: full-length cDNA in p426H7, expressed in S. cerevisiae EBY.VW4000 with K. lactis LAC4
T3 sequence (Q7SD12 entry or part of it): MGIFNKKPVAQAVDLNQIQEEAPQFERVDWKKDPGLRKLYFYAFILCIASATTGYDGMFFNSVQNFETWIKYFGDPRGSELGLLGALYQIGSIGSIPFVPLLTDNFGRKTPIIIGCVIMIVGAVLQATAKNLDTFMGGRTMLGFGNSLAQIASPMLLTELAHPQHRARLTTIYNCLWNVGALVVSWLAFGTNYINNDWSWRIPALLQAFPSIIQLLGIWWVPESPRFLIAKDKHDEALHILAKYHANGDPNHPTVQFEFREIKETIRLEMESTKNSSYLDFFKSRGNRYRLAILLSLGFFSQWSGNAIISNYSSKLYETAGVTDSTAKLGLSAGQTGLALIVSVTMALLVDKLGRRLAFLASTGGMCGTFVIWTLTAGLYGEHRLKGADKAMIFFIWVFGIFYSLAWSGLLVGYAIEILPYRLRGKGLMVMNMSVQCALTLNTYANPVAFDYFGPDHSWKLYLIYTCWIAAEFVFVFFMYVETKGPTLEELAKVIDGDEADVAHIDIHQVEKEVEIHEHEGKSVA
The experiment in a line: growth of transporter-expressing yeast on the sugar as sole carbon source. Particulars: 0.2% or 2% lactose, 30 °C, 3 days, coexpressed K. lactis Lac4; uptake also reduced in N. crassa deletion mutant.

Test [4] concerns the target T2, NCU00809. The test is described as above. Particulars: 0.2% or 2% lactose, 30 °C, 3 days, coexpressed K. lactis Lac4; uptake also reduced in N. crassa deletion mutant.
Test [5] has as its target T4, CDT-1 (Neurospora crassa, UniProt Q7SCU1).
T4 construct: full-length cDNA in p426H7, expressed in S. cerevisiae EBY.VW4000 (with K. lactis LAC4 for lactose)
The description is as above. The following applies: 0.2% or 2% lactose, 30 °C, 3 days, coexpressed K. lactis Lac4; uptake also reduced in N. crassa deletion mutant.

T1 sequence (Q7SGN1 entry or part of it): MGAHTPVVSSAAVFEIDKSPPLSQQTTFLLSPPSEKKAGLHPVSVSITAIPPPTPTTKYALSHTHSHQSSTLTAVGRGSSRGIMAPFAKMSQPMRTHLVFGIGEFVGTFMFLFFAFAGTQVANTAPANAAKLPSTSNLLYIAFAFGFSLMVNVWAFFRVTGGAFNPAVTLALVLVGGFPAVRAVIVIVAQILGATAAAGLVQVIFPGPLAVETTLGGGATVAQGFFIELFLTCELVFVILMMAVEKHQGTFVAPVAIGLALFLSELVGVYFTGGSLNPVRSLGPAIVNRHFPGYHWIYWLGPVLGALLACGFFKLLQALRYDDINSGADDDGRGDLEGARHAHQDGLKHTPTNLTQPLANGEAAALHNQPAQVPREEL
T4 sequence (Q7SCU1 entry or part of it): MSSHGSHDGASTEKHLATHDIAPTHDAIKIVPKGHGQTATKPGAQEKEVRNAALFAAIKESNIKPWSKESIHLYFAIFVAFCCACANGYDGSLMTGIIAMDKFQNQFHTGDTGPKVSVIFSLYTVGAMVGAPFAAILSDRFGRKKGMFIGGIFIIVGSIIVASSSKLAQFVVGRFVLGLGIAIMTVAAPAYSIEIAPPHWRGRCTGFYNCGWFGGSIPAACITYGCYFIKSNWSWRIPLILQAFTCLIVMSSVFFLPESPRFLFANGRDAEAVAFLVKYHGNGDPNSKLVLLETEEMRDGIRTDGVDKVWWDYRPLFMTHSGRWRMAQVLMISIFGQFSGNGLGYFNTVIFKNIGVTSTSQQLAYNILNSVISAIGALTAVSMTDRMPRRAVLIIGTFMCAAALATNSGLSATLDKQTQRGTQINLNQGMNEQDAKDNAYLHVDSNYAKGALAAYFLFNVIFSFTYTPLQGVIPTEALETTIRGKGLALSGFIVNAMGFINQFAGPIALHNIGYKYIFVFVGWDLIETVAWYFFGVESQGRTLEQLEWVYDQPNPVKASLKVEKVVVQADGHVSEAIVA

Turning to `OCC(O)CO` [glycerol], in test [1], the “glycerol uptake by N. crassa wild type versus deletion mutant” value was “a significantly reduced uptake rate in the respective deletion mutant”. In the case of `OC[C@H]1OC(O)[C@H](O)[C@@H](O)[C@H]1O` (stereo partly drawn) [D-galactose], the “growth of transporter-expressing yeast on the sugar” value in test [2] is reported as “NCU00809 was found to display transport activity for D-galactose”. With `OC[C@H]1O[C@@H](O[C@H]2[C@H](O)[C@@H](O)C(O)O[C@@H]2CO)[C@H](O)[C@@H](O)[C@H]1O` (stereo partly drawn) [lactose, β-D-galactopyranosyl-(1 → 4)-D-glucose], the “growth of transporter-expressing yeast on the sugar as sole carbon source” value in test [3], in test [4] and in test [5] was “demonstrating that they are plasma membrane permeases that can transport lactose” each time.
